Laboratory results as given in ChEMBL document CHEMBL5537169, “Structure-Activity Relationships and Discovery of (S)-6-Isopropyl-2-methoxy-3-(3-methoxypropoxy)-10-oxo-5,10-dihydro-6H-pyrido[1,2-h][1,7]naphthyridine-9-carboxylic Acid (AB-452), a Novel Orally Available HBV RNA Destabilizer” (J Med Chem, 2024).
pIC50: −log10 of the molar value. Converted amounts (≈) assume the structure as drawn. The source made the active and inactive calls. No cut-off for these calls is given here.

How the values were obtained:
[1] = Cmax in CD-1 mouse at 2 mg/kg,iv measured at 0.083 to 24 hrs post administration by LC-MS/MS analysis; type: ADME, organism-based; details: in vivo, time 0.083-24 hrs
[2] = Drug accumulation in CD-1 mouse liver assessed as fold change in drug uptake at 10 mg/kg,po measured at 0.083 to 24 hrs post administration by LC-MS/MS analysis; type: ADME, organism-based; details: in vivo, time 0.083-24 hrs
[3] = Half life in CD-1 mouse at 2 mg/kg,iv measured at 0.083 to 24 hrs post administration by LC-MS/MS analysis; type: ADME, organism-based; details: in vivo, time 0.083-24 hrs
[4] = Clearance in Sprague-Dawley rat at 2 mg/kg,iv measured at 0.083 to 24 hrs post administration by LC-MS/MS analysis; type: ADME, organism-based; details: in vivo, time 0.083-24 hrs
[5] = Drug accumulation in CD-1 mouse plasma assessed as fold change in drug uptake at 10 mg/kg,po measured at 0.083 to 24 hrs post administration by LC-MS/MS analysis; type: ADME, organism-based; details: in vivo, time 0.083-24 hrs
[6] = Cmax in Beagle dog at 2 mg/kg,iv measured at 0.083 to 24 hrs post administration by LC-MS/MS analysis; type: ADME, organism-based, Canis lupus familiaris; details: in vivo, time 0.083-24 hrs
[7] = Apparent volume of distribution at steady state in Sprague-Dawley rat at 2 mg/kg,iv measured at 0.083 to 24 hrs post administration by LC-MS/MS analysis; type: ADME, organism-based; details: in vivo, time 0.083-24 hrs, read-out: Vdss(app)
[8] = Cardiotoxicity in Langendorff-perfused New Zealand White rabbit heart assessed as increase in PR interval incubated for 45 mins by ECG analysis; type: toxicity, tissue-based, Oryctolagus cuniculus; details: 0.75 h
[9] = Half life in Beagle dog at 10 mg/kg,po measured at 0.083 to 24 hrs post administration by LC-MS/MS analysis; type: ADME, organism-based, Canis lupus familiaris; details: in vivo, time 0.083-24 hrs
[10] = AUCinfinity in CD-1 mouse at 10 mg/kg,po measured at 0.083 to 24 hrs post administration by LC-MS/MS analysis; type: ADME, organism-based; details: in vivo, time 0.083-24 hrs
[11] = Drug accumulation in Sprague-Dawley rat liver assessed as fold change in drug uptake at 10 mg/kg,po measured at 0.083 to 24 hrs post administration by LC-MS/MS analysis; type: ADME, organism-based; details: in vivo, time 0.083-24 hrs
[12] = AUCinfinity in Sprague-Dawley rat at 2 mg/kg,iv measured at 0.083 to 24 hrs post administration by LC-MS/MS analysis; type: ADME, organism-based; details: Sprague-Dawley, in vivo, time 0.083-24 hrs
[13] = AUCinfinity in CD-1 mouse at 2 mg/kg,iv measured at 0.083 to 24 hrs post administration by LC-MS/MS analysis; type: ADME, organism-based; details: in vivo, time 0.083-24 hrs
[14] = Apparent volume of distribution at steady state in CD-1 mouse at 2 mg/kg,iv measured at 0.083 to 24 hrs post administration by LC-MS/MS analysis; type: ADME, organism-based; details: in vivo, time 0.083-24 hrs, read-out: Vdss(app)
[15] = Cardiotoxicity in Langendorff-perfused New Zealand White rabbit heart assessed as increase in QRS interval incubated for 45 mins by ECG analysis; type: toxicity, tissue-based, Oryctolagus cuniculus; details: 0.75 h
[16] = Drug accumulation in Sprague-Dawley rat plasma assessed as fold change in drug uptake at 10 mg/kg,po measured at 0.083 to 24 hrs post administration by LC-MS/MS analysis; type: ADME, organism-based; details: in vivo, time 0.083-24 hrs
[17] = Cmax in Sprague-Dawley rat at 2 mg/kg,iv measured at 0.083 to 24 hrs post administration by LC-MS/MS analysis; type: ADME, organism-based; details: in vivo, time 0.083-24 hrs
[18] = Cmax in Sprague-Dawley rat at 10 mg/kg,po measured at 0.083 to 24 hrs post administration by LC-MS/MS analysis; type: ADME, organism-based; details: Sprague-Dawley, in vivo, time 0.083-24 hrs, read-out: Cmax
[19] = Half life in Sprague-Dawley rat at 2 mg/kg,iv measured at 0.083 to 24 hrs post administration by LC-MS/MS analysis; type: ADME, organism-based; details: in vivo, time 0.083-24 hrs
Cytochrome P450 3A4 = Cytochrome P450 3A4 (Homo sapiens, UniProt P08684); assay: Reversible inhibition of CYP3A4 in human liver microsomes using midazolam as substrate pre-incubated for 30 mins followed by NADPH addition and measured after 10 mins by LC-MS/MS analysis; type: ADME, Microsome
Cytochrome P450 3A4, sequence (P08684 whole entry): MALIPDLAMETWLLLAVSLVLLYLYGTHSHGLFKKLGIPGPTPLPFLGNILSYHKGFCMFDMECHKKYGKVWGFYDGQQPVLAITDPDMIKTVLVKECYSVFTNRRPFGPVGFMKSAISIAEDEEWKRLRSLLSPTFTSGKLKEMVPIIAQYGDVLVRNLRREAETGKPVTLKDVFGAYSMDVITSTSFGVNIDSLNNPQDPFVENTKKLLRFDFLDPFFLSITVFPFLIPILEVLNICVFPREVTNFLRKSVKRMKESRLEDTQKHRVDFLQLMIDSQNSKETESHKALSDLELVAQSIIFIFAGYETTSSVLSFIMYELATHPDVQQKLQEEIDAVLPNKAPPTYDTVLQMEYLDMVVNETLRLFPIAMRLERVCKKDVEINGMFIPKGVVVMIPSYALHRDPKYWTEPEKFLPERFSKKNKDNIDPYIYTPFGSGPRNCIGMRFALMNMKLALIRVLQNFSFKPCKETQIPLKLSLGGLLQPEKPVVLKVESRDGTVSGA

[20] = Efflux ratio of apparent permeability from […] in human Caco-2 cells incubated for 120 mins by LC-MS/MS analysis; type: ADME, cell-based; details: caco-2, 2 h
[21] = Kinetic solubility of compound in PBS at pH 4 incubated for 24 hrs by UPLC-UV analysis; type: physicochemical; details: read-out: Kinetic_solubility
[22] = Tmax in Sprague-Dawley rat at 10 mg/kg,po measured at 0.083 to 24 hrs post administration by LC-MS/MS analysis; type: ADME, organism-based; details: Sprague-Dawley, in vivo, time 0.083-24 hrs, read-out: Tmax
[23] = Tmax in CD-1 mouse at 10 mg/kg,po measured at 0.083 to 24 hrs post administration by LC-MS/MS analysis; type: ADME, organism-based; details: in vivo, time 0.083-24 hrs
HepG2 2.2.15 = assay: Cytotoxicity against human HepG2.2.15 cells by Cell-titer Glo luminescent assay; type: functional
[24] = Apparent volume of distribution at steady state in CD-1 mouse at 10 mg/kg,po measured at 0.083 to 24 hrs post administration by LC-MS/MS analysis; type: ADME, organism-based; details: in vivo, time 0.083-24 hrs
Cytochrome P450 2D6 = Cytochrome P450 2D6 (Homo sapiens, UniProt P10635); assay: Reversible inhibition of CYP2D6 in human liver microsomes using dextromethorphan as substrate pre-incubated for 30 mins followed by NADPH addition and measured after 10 mins by LC-MS/MS analysis; type: ADME, Microsome
Cytochrome P450 2D6, sequence (P10635 whole entry): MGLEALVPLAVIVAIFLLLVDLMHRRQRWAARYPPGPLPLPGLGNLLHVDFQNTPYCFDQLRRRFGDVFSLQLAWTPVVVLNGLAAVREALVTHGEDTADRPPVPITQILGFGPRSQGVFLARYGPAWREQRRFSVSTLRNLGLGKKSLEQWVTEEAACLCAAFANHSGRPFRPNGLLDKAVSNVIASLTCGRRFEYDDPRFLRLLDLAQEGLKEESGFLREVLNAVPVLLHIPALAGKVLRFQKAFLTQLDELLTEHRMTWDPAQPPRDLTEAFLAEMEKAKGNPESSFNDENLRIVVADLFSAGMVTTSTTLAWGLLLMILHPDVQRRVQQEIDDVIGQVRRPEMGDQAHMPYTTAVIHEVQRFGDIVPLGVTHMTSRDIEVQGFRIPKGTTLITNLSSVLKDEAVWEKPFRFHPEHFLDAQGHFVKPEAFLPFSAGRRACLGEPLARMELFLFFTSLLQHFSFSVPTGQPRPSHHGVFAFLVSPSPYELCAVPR

Cytochrome P450 2C9 = Cytochrome P450 2C9 (Homo sapiens, UniProt P11712); assay: Reversible inhibition of CYP2C9 in human liver microsomes using diclofenac as substrate pre-incubated for 30 mins followed by NADPH addition and measured after 10 mins by LC-MS/MS analysis; type: ADME, Microsome
Cytochrome P450 2C9, sequence (P11712 whole entry): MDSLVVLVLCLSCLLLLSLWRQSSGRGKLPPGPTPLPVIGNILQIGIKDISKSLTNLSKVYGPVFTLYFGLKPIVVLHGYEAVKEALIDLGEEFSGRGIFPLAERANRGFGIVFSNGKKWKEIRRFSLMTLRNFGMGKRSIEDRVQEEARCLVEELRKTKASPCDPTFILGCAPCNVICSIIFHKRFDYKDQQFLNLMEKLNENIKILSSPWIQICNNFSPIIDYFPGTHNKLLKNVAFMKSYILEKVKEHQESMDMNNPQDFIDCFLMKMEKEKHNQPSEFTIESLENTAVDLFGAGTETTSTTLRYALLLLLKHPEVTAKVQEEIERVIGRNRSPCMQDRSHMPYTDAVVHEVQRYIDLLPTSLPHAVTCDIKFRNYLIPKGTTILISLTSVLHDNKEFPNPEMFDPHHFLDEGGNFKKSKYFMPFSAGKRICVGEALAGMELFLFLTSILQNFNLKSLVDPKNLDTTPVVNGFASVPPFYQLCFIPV

[25] = Clearance in Beagle dog at 2 mg/kg,iv measured at 0.083 to 24 hrs post administration by LC-MS/MS analysis; type: ADME, organism-based, Canis lupus familiaris; details: in vivo, time 0.083-24 hrs
Hepatitis B virus [26] = assay: Antiviral activity against AAV-Hepatitis B virus infected in C57BL/6 mouse assessed as serum HBsAg level at 3 mg/kg,po administrated once daily for 7 days by enzyme-linked immunoassay; type: functional; details: time 7 day
[27] = Toxicity in rat assessed as NOAEL administrated for 28 days; details: in vivo, time 28 day
Hepatitis B virus [28] = assay: Antiviral activity against AAV-Hepatitis B virus infected in C57BL/6 mouse assessed as serum HBsAg level at 30 mg/kg,po administrated once daily for 7 days by enzyme-linked immunoassay; type: functional; details: time 7 day
Hepatitis B virus [29] = assay: Antiviral activity against AAV-Hepatitis B virus infected in C57BL/6 mouse assessed as serum HBsAg level at 10 mg/kg,po administrated once daily for 7 days by enzyme-linked immunoassay; type: functional; details: time 7 day
Hepatitis B virus [30] = assay: Antiviral activity against AAV-Hepatitis B virus infected in C57BL/6 mouse assessed as liver HBsAg level at 3 to 30 mg/kg,po administrated once daily for 7 days by enzyme-linked immunoassay; type: functional, organism-based; details: dose 3-30 mg/kg, time 7.0 day
Hepatitis B virus [31] = assay: Antiviral activity against AAV-Hepatitis B virus infected in C57BL/6 mouse assessed as liver total HBV RNA level at 3 to 30 mg/kg,po administrated once daily for 7 days by branched DNA assay; type: functional, organism-based; details: dose 3-30 mg/kg, time 7.0 day

Cmax [6]	half-life [9]	AUC(0-inf) [10]	Compound	Cmax [1]	fold change (FC) [2]	half-life [3]	clearance [4]	fold change (FC) [5]	Vd [7]	Activity [8]	fold change (FC) [11]	AUC(0-inf) [12]	AUC(0-inf) [13]	Vd [14]	Activity [15]	fold change (FC) [16]	Cmax [17]	Cmax [18]	half-life [19]	pIC50 (Cytochrome P450 3A4)	also measured
1500 ng/mL	1.6 h	6150 ng·h/mL	COCCCOc1cc2c(cc1OC)-c1cc(=O)c(C(=O)O)cn1[C@H](C(C)C)C2	1150 ng/mL	< 1	1 h	8.6 mL/min/kg	< 1	0.7 L/kg	Toxic	12	4760 ng·h/mL	1280 ng·h/mL	1.2 L/kg	Toxic	3.4	4950 ng/mL	1190 ng/mL	1.3 h	–	–
2060 ng/mL	1.7 h	5880 ng·h/mL	COCCCOc1cc2c(cc1Cl)-c1cc(=O)c(C(=O)O)cn1[C@H](C(C)C)CO2	–	–	–	–	–	–	Toxic	–	–	–	–	Toxic	–	–	–	–	< 4.60	Ratio [20]: 1.5; solubility kinetic at 24 h [21]: 31 µM (≈ 13.1 µg/mL); Tmax [22]: 2.1 h; Tmax [23]: 4.1 h; CC50 (HepG2 2.2.15): 39 µM; Vdss(app) [24]: 1.1 L/kg; pIC50 (Cytochrome P450 2D6): < 4.60; pIC50 (Cytochrome P450 2C9): < 4.60; clearance [25]: 10 mL/min/kg

Compound	Cmax [6]	half-life [9]	AUC(0-inf) [10]	Cmax [1]	fold change (FC) [2]	half-life [3]	clearance [4]	fold change (FC) [5]	Vd [7]	Activity [8]	fold change (FC) [11]	AUC(0-inf) [12]	AUC(0-inf) [13]	Vd [14]	Activity [15]	fold change (FC) [16]	Cmax [17]	Cmax [18]	half-life [19]	pIC50 (Cytochrome P450 3A4)	also measured
COCCCOc1cc2c(nc1OC)-c1cc(=O)c(C(=O)O)cn1[C@H](C(C)C)C2	2310 ng/mL	2.8 h	5680 ng·h/mL	1180 ng/mL	2.6	0.9 h	9.6 mL/min/kg	8.6	0.7 L/kg	–	28	3500 ng·h/mL	1150 ng·h/mL	1.5 L/kg	–	8.7	3240 ng/mL	1540 ng/mL	1.3 h	< 4.60	Activity (Hepatitis B virus [26]): 0.74 log10CFU; Ratio [20]: 3.8; solubility kinetic at 24 h [21]: > 200 µM; NOAEL at 672 h [27]: 150 mg/kg; Activity (Hepatitis B virus [28]): 1.78 log10CFU; Activity (Hepatitis B virus [29]): 1.64 log10CFU; Activity (Hepatitis B virus [30]): Active; CC50 (HepG2 2.2.15): > 50 µM; pIC50 (Cytochrome P450 2D6): < 4.60; pIC50 (Cytochrome P450 2C9): < 4.60; clearance [25]: 5.4 mL/min/kg; Activity (Hepatitis B virus [31]): Active
